Laboratory results as given in patent US11332435B2, “Method for producing (3S)-3-(4-chloro-3-{[(2S,3R)-2-(4- chlorophenyl)-4,4,4-trifluoro-3-methylbutanoyl]amino}phenyl)-3-cyclo-propylpropanoic acid and the crystalline form thereof for use as a pharmaceutical ingredient” (Bayer Pharma Aktiengesellschaft, priority 2017, dated 2022).

What was measured:
[1] = thermodynamic stability of the solid form; assay type: physicochemical; conditions: crystalline modification 1 compared with amorphous form of WO 2012/139888
[2] = stability in the micronization process; assay type: physicochemical
[3] = bioavailability of the solid form; assay type: in vivo; conditions: crystalline form of modification 1

- thermodynamic stability [1]: higher thermodynamic stability
- stability in the micronization process (conversion, recrystallization) [2]: stable in the micronization process
- bioavailability [3]: reproducible bioavailability
SMILES: C[C@H]([C@H](C(=O)Nc1cc([C@@H](CC(=O)O)C2CC2)ccc1Cl)c1ccc(Cl)cc1)C(F)(F)F [Example I-1, (3S)-3-(4-chloro-3-{[(2S,3R)-2-(4-chlorophenyl)-4,4,4-trifluoro-3-methylbutanoyl]amino}phenyl)-3-cyclopropylpropanoic acid]
